Data: US8952024B2, “Herbicidal pyrimidone derivatives” (E I du Pont de Nemours and Company, priority 2009, dated 2015)

What was measured:
Type in all cases: in vivo
[1] = system: Italian ryegrass (Lolium multiflorum); assay: Test B pre-/postemergence plant response
Method in brief: (§1)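 Seeds were sown in loam soil/sand blend and treated preemergence with compound in non-phytotoxic solvent mixture containing surfactant; postemergence sprays, same formulation, went onto plants 2 to 18 cm (1- to 4-leaf stage) in peat-based planting medium. Greenhouse 13 to 15 days, then visual rating versus untreated controls, 0 (no effect) to 100 (complete control).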

[2] = system: bermudagrass (Cynodon dactylon); assay: Test B pre-/postemergence plant response
Method in brief: as §1

[3] = system: wheat (Triticum aestivum); assay: Test B pre-/postemergence plant response
Method in brief: as §1

[4] = system: ragweed (common ragweed, Ambrosia elatior); assay: Test B pre-/postemergence plant response
Method in brief: as §1

[5] = system: johnsongrass (Sorghum halepense); assay: Test B pre-/postemergence plant response
Method in brief: as §1

[6] = system: corn (Zea mays); assay: Test B pre-/postemergence plant response
Method in brief: as §1

[7] = system: velvetleaf (Abutilon theophrasti); assay: Test B pre-/postemergence plant response
Method in brief: as §1

[8] = system: soybean (Glycine max); assay: Test B pre-/postemergence plant response
Method in brief: as §1

[9] = system: giant foxtail (Setaria faberii); assay: Test B pre-/postemergence plant response
Method in brief: as §1

[10] = system: green foxtail (Setaria viridis); assay: Test B pre-/postemergence plant response
Method in brief: as §1

[11] = system: goosegrass (Eleusine indica); assay: Test B pre-/postemergence plant response
Method in brief: as §1

[12] = system: morningglory (Ipomoea coccinea); assay: Test B pre-/postemergence plant response
Method in brief: as §1

[13] = system: downy bromegrass (Bromus tectorum); assay: Test B pre-/postemergence plant response
Method in brief: as §1

[14] = system: blackgrass (Alopecurus myosuroides); assay: Test B pre-/postemergence plant response
Method in brief: as §1

[15] = system: pigweed (Amaranthus retroflexus); assay: Test B pre-/postemergence plant response
Method in brief: as §1

[16] = system: chickweed (Stellaria media); assay: Test B postemergence plant response
Method in brief: (§2)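 Visual ratings from 0 (no effect) to 100 (complete control), made against controls 13–15 days after treatment, kept in a greenhouse. Compounds were applied postemergence to potted plants at the 1- to 4-leaf stage (2–18 cm).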

[17] = system: canarygrass (Phalaris minor); assay: Test B postemergence plant response
Method in brief: as §2

[18] = system: winter barley (Hordeum vulgare); assay: Test B postemergence plant response
Method in brief: as §2

[19] = 16 g ai/ha, Postemergence, 0 to 100 scale
[20] = 31 g ai/ha, postemergence, scale 0 to 100, 0 is no effect, 100 is complete control
[21] = 62 g ai/ha, postemergence, 0 is no effect, 100 is complete control, 13 to 15 days
[22] = Postemergence, 125 g ai/ha, visual rating after 13 to 15 days, scale 0 (no effect) to 100 (complete control)
[23] = Preemergence, 31 g ai/ha, scale 0 to 100 (0 no effect, 100 complete control)
[24] = Preemergence, 62 g ai/ha, scale 0 to 100, 0 no effect, 100 complete control
[25] = Preemergence, 125 g ai/ha, scale 0 to 100, 0 no effect, 100 complete control
[26] = Preemergence, 16 g ai/ha, scale 0 to 100, 0 no effect, 100 complete control

SMILES: O=C1CCCC(O)=C1C(=O)c1cnc(-c2cccc(Br)c2)n(-c2ccccc2)c1=O [Compound 69]
- Plant response rating, Ryegrass, Italian [1, 19]: 0
- Plant response rating, Ryegrass, Italian [1, 20]: 30
- Ryegrass, Italian plant response rating (0 to 100 scale) [1, 21]: 50
- Plant response rating, Ryegrass, Italian [1, 22]: 50
- Plant response rating, Ryegrass, Italian [1, 23]: 0
- Plant response rating, Ryegrass, Italian [1, 24]: 0
- Plant response rating, Ryegrass, Italian [1, 25]: 0
- Plant response rating, Bermudagrass [2, 19]: 85
- Plant response rating, Bermudagrass [2, 20]: 98
- Bermudagrass plant response rating (0 to 100 scale) [2, 21]: 98
- Plant response rating, Bermudagrass [2, 22]: 98
- Plant response rating, Bermudagrass [2, 26]: 90
- Plant response rating, Bermudagrass [2, 23]: 98
- Plant response rating, Bermudagrass [2, 24]: 100
- Plant response rating, Bermudagrass [2, 25]: 100
- Plant response rating, Wheat [3, 19]: 0
- Plant response rating, Wheat [3, 20]: 5
- Wheat plant response rating (0 to 100 scale) [3, 21]: 5
- Plant response rating, Wheat [3, 22]: 10
- Plant response rating, Wheat [3, 23]: 0
- Plant response rating, Wheat [3, 24]: 0
- Plant response rating, Wheat [3, 25]: 0
- Plant response rating, Ragweed [4, 19]: 75
- Plant response rating, Ragweed [4, 20]: 90
- Ragweed plant response rating (0 to 100 scale) [4, 21]: 90
- Plant response rating, Ragweed [4, 22]: 100
- Plant response rating, Ragweed [4, 23]: 65
- Plant response rating, Ragweed [4, 24]: 65
- Plant response rating, Ragweed [4, 25]: 65
- Plant response rating, Johnsongrass [5, 19]: 75
- Plant response rating, Johnsongrass [5, 20]: 98
- Johnsongrass plant response rating (0 to 100 scale) [5, 21]: 100
- Plant response rating, Johnsongrass [5, 22]: 100
- Plant response rating, Johnsongrass [5, 26]: 0
- Plant response rating, Johnsongrass [5, 23]: 5
- Plant response rating, Johnsongrass [5, 24]: 45
- Plant response rating, Johnsongrass [5, 25]: 85
- Plant response rating, Corn [6, 19]: 0
- Plant response rating, Corn [6, 20]: 5
- Corn plant response rating (0 to 100 scale) [6, 21]: 10
- Plant response rating, Corn [6, 22]: 25
- Plant response rating, Corn [6, 26]: 0
- Plant response rating, Corn [6, 23]: 0
- Plant response rating, Corn [6, 24]: 0
- Plant response rating, Corn [6, 25]: 0
- Plant response rating, Velvetleaf [7, 19]: 75
- Plant response rating, Velvetleaf [7, 20]: 95
- Velvetleaf plant response rating (0 to 100 scale) [7, 21]: 98
- Plant response rating, Velvetleaf [7, 22]: 98
- Plant response rating, Velvetleaf [7, 23]: 70
- Plant response rating, Velvetleaf [7, 24]: 70
- Plant response rating, Velvetleaf [7, 25]: 85
- Plant response rating, Soybean [8, 19]: 45
- Plant response rating, Soybean [8, 20]: 80
- Soybean plant response rating (0 to 100 scale) [8, 21]: 90
- Plant response rating, Soybean [8, 22]: 98
- Plant response rating, Foxtail, Giant [9, 19]: 80
- Plant response rating, Foxtail, Giant [9, 20]: 95
- Foxtail, Giant plant response rating (0 to 100 scale) [9, 21]: 98
- Plant response rating, Foxtail, Giant [9, 22]: 98
- Plant response rating, Foxtail, Giant [9, 26]: 0
- Plant response rating, Foxtail, Giant [9, 23]: 5
- Plant response rating, Foxtail, Giant [9, 24]: 75
- Plant response rating, Foxtail, Giant [9, 25]: 90
- Plant response rating, Foxtail, Green [10, 19]: 75
- Plant response rating, Foxtail, Green [10, 20]: 95
- Foxtail, Green plant response rating (0 to 100 scale) [10, 21]: 98
- Plant response rating, Foxtail, Green [10, 22]: 100
- Plant response rating, Foxtail, Green [10, 24]: 70
- Plant response rating, Foxtail, Green [10, 25]: 85
- Plant response rating, Goosegrass [11, 19]: 75
- Plant response rating, Goosegrass [11, 20]: 75
- Goosegrass plant response rating (0 to 100 scale) [11, 21]: 80
- Plant response rating, Goosegrass [11, 22]: 85
- Plant response rating, Goosegrass [11, 26]: 55
- Plant response rating, Goosegrass [11, 23]: 95
- Plant response rating, Goosegrass [11, 24]: 100
- Plant response rating, Goosegrass [11, 25]: 100
- Plant response rating, Morningglory [12, 19]: 65
- Plant response rating, Morningglory [12, 20]: 70
- Morningglory plant response rating (0 to 100 scale) [12, 21]: 70
- Plant response rating, Morningglory [12, 22]: 75
- Plant response rating, Morningglory [12, 26]: 0
- Plant response rating, Morningglory [12, 23]: 0
- Plant response rating, Morningglory [12, 24]: 0
- Plant response rating, Morningglory [12, 25]: 0
- Plant response rating, Bromegrass, Downy [13, 19]: 30
- Plant response rating, Bromegrass, Downy [13, 20]: 40
- Bromegrass, Downy plant response rating (0 to 100 scale) [13, 21]: 55
- Plant response rating, Bromegrass, Downy [13, 22]: 70
- Plant response rating, Bromegrass, Downy [13, 26]: 0
- Plant response rating, Bromegrass, Downy [13, 23]: 0
- Plant response rating, Bromegrass, Downy [13, 24]: 0
- Plant response rating, Bromegrass, Downy [13, 25]: 0
- Plant response rating, Blackgrass [14, 19]: 0
- Plant response rating, Blackgrass [14, 20]: 0
- Blackgrass plant response rating (0 to 100 scale) [14, 21]: 0
- Plant response rating, Blackgrass [14, 22]: 0
- Plant response rating, Blackgrass [14, 26]: 0
- Plant response rating, Blackgrass [14, 23]: 0
- Plant response rating, Blackgrass [14, 24]: 0
- Plant response rating, Blackgrass [14, 25]: 0
- Plant response rating, Pigweed [15, 19]: 95
- Plant response rating, Pigweed [15, 20]: 98
- Pigweed plant response rating (0 to 100 scale) [15, 21]: 100
- Plant response rating, Pigweed [15, 22]: 100
- Plant response rating, Pigweed [15, 26]: 95
- Plant response rating, Pigweed [15, 23]: 98
- Plant response rating, Pigweed [15, 24]: 100
- Plant response rating, Pigweed [15, 25]: 100
- Plant response rating, Chickweed [16, 19]: 95
- Plant response rating, Chickweed [16, 20]: 98
- Chickweed plant response rating (0 to 100 scale) [16, 21]: 98
- Plant response rating, Chickweed [16, 22]: 98
- Plant response rating, Canarygrass [17, 19]: 0
- Plant response rating, Canarygrass [17, 20]: 0
- Canarygrass plant response rating (0 to 100 scale) [17, 21]: 0
- Plant response rating, Canarygrass [17, 22]: 25
- Plant response rating, Barley [18, 19]: 0
- Plant response rating, Barley [18, 20]: 5
- Barley plant response rating (0 to 100 scale) [18, 21]: 5
- Plant response rating, Barley [18, 22]: 15
